Test [1] has as its system 2N5.1 (Mamu-B*098-transfected LLC-MK2 cells as Ag-presenting cells). In words: Ag presentation by LLC-MK2 cells transfected with rhesus MHC class I (Mamu) cDNA to 2N5.1. Format: cell-based, rhesus macaque. Conditions: C14nef5 presented by LLC-MK2 expressing Mamu-B*098; in triplicate, mean with s.e.m. (graph). The method, then: (§1) Figure 1 Identification of Mamu-B*098 as a lipopeptide Ag-presenting molecule. (a) LLC-MK2 cells transfected with each of the rhesus MHC class I genes were tested for their ability to present C14nef5 to 2N5.1. […] PBMCs obtained from a donor with the potential to present C14nef5 to 2N5.1 were used as a positive control. Experiments were performed in triplicate. Mean values with s.e.m. are shown. (b) The binding of lipopeptide Ags to recombinant β2m-linked Mamu-B*098 and Mamu-A*02 proteins was monitored by biolayer interferometry. Representative data from three independent experiments are shown. Mamu-A*02, a rhesus MHC class I allele known to bind 9-mer peptides, was used as a negative control. (c) Plate-coated MHC class I molecules were tested for their ability to present lipopeptide Ags to 2N5.1. The Ag-specific T-cell response was assessed by measuring the amount of IFN-γ released into the culture medium. Mean values with s.e.m. are shown. […] The original data (coloured as indicated) are depicted with the curve fit (grey) overlaid. The steady-state affinity plot (inset) is also shown. Three independent experiments were performed and mean equilibrium-dissociation constant (KD) values ±s.d. are shown. (e) Amino acid sequences of Mamu-B*098, HLA-B*27:09, Mamu-B*17:01 and human CD1a are shown. […] Solid and open triangles indicate paired and unpaired cysteine residues, respectively. […]

The subject of test [2] is 2N5.1 (LLC-MK2 cells transfected with other rhesus MHC class I genes). In words: Ag presentation by other (non-B*098) Mamu class I LLC-MK2 transfectants to 2N5.1. Format: cell-based, rhesus macaque. Conditions: LLC-MK2 transfected with each rhesus MHC class I cDNA clone, other than Mamu-B*098; IFN-γ; C14nef5. The protocol:
as §1

In test [3] the test system is 2N5.1 (plate-coated Mamu-B*098). In words: T-cell assay with plate-coated Mamu-B*098, IFN-γ release by 2N5.1. Format: cell-based, rhesus macaque. As to conditions: 10 μg MHC protein, 1 μg lipopeptide loaded overnight 37 °C; 5 × 10^4 T cells per well, 24 h; IFN-γ ELISA. An excerpt:
Single-chain MHC proteins in which β2m was linked via a Gly-Ser linker (GGGGSGGSGSGGGSS) to the ectodomain of either Mamu-B*098 or Mamu-A*02, followed by a biotinylation sequence peptide (LHHILDAQKMVWNHR), were also expressed in E. coli and were purified in a similar manner to the trimer complex of Mamu-B*098, β2m and C14nef5. The β2m-linked Mamu-B*098 protein was refolded without C14nef5, whereas the β2m-linked Mamu-A*02 protein was refolded in the presence of the YY9 peptide (YTSGPGIRY). These recombinant proteins (3 mg) were biotinylated by being incubated for 12 h at 20 °C with 2 μg of BirA enzyme (Sigma-Aldrich, St Louis, MO) in a biotinylation buffer containing 100 mM Tris-HCl pH 8.0, 5 mM MgCl2, 4.5 mM ATP and 4 mM D-biotin, and were purified by size-exclusion chromatography.
Streptavidin-coated 96-well plates (Thermo Scientific, Hudson, NH) were overlaid with 10 μg of the biotinylated β2m-linked Mamu-B*098 and Mamu-A*02 proteins, and lipopeptide Ags (1 μg) were loaded by an overnight incubation at 37 °C. The wells were then washed extensively and T cells (5 × 10^4 per well) were added. After a 24-h incubation at 37 °C, aliquots of the culture supernatants were collected and the amount of IFN-γ released into the medium was measured by a human/monkey IFN-γ enzyme-linked immunosorbent assay kit (Mabtech, Nacka Strand, Sweden).

The next test has as its system 2N5.1. Conditions: cited from earlier work. An excerpt: For example, human and simian immunodeficiency viruses (HIV and SIV) borrow host-derived N-myristoyltransferase and its substrate myristoyl-CoA, to couple a 14-carbon saturated fatty acid (myristic acid) to the N-terminal glycine residue of the Nef protein. […] To obtain an insight into its molecular identity, we generated several hundred monoclonal antibodies that recognized rhesus PBMCs and tested their abilities to block the presentation of C14nef5 to 2N5.1. […] The myristoyl group of the lipopeptide adopted a U-shaped configuration and fit perfectly with the extended B pocket. Furthermore, inter- and intramolecular VDW forces established throughout the acyl chain synergistically reinforced its stable binding to the B pocket. These structural f ... || (+ 1 further places)

For the substance “C14-Gly-Gly-Ala-Ile-Ser [C14nef5, N-myristoylated 5-mer peptide (C14-Gly-Gly-Ala-Ile-Ser; C14nef5) derived from the SIV Nef protein]”, the “stimulation of 2N5.1 to produce IFN-γ by Mamu-B*098-transfected LLC-MK2 cells” value in test [1] is given as “stimulated 2N5.1 cells to produce interferon-γ (IFN-γ)”. For the same substance, the “Ag presentation capacity of other Mamu class I transfectants” value in test [2] is on record as “None of the cell transfectants exhibited the Ag presentation capacity”. For the same substance, the “IFN-γ response of 2N5.1 to plate-coated Mamu-B*098 with lipopeptide Ag” value in test [3] was “sufficient for stimulating 2N5.1 to produce IFN-γ”. Also, in the test with 2N5.1, the “antigenic activity, C14nef5 versus its Ser to Thr mutant” value is “virtually identical antigenic activities” and the “recognition by rhesus macaque CD8+ CTL line 2N5.1” value is listed as “specifically recognizes”. In addition, in the test on 2N5.1 (irradiated PBMCs), the “requirement of PBMCs for recognition by 2N5.1” value is “requires the presence of irradiated peripheral blood mononuclear cells (PBMCs)”.

These data come from paper PMC4735555, “Crystal structure of the N-myristoylated lipopeptide-bound MHC class I complex” (Nature Communications, 2016).
